Results taken from patent US20160223554A1, “METHODS FOR DIAGNOSIS, PROGNOSIS AND METHODS OF TREATMENT” (priority 2011, published 2016).

How the values were obtained:
[1] = test system: AML blasts; experiment: SCNP phospho-flow signaling nodes in AML PBMC (Example 2, Study No. 1); type: cell-based, human; conditions: for Mean Value of CRs: CR patients; for Mean Value of CRs / Mean Value of NRs: Study No. 1; for Mean Value of NRs: NR patients
Procedure: Frozen cells are thawed in a 37° C. water bath and gently resuspended in the vial and transferred to the 15 mL conical tube. The 15 mL tube is centrifuged at 930 RPM (200×g) for 8 minutes at room temperature. The supernatant is aspirated and the pellet is gently resuspended in 1 mL media A. The cell suspension is filtered through a 70 um cell strainer into a new 15 mL tube. The cell strainer is rinsed with 1 mL media A and another 12 ml of media A into the 15 mL tube. The cells are mixed into an even suspension. A 20 μL aliquot is immediately removed into a 96-well plate containing 180 μL PBS+4% FBS+CD45 Alexa 700+PI to determine cell count and viability post spin. After the determination, the 15 mL tubes are centrifuged at 930 RPM (200×g) for 8 minutes at room temperature. The supernatant is aspirated and the cell pellet is gently resuspended in 4 mL PBS+4 μL Amine Aqua and incubated for 15 min in a 37° C. incubator. 10 mL RPMI+1% FBS is added to the cell suspension and the tube is inverted to mix the cells. The 15 mL tubes are centrifuged at 930 RPM (200×g) for 8 minutes at room temperature. The cells are resuspended in Media A at the desired cell concentration (1.25×10^6/mL). For samples with low numbers of cells (<18.5×10^6), the cells are resuspended in up to 15 mL media. For samples with high numbers of cells (>18.5×10^6), the volume is raised to 10 mL with media A and the desired volume is transferred to a new 15 mL tube, and the cell concentration is adjusted to 1.25×10^6 cells/ml. 1.6 mL of the above cell suspension (concentration at 1.25×10^6 cells/ml) is transferred into wells of a multi-well plate. From this plate, 80 ul is dispensed into each well of a subsequent plate. The plates are covered with a lid (Nunc) and placed in a 37° C. incubator for 2 hours to rest.
A concentration for each stimulant that is five folds more (5×) than the final concentration is prepared using Media A as diluent. 5× stimuli are arrayed into wells of a standard 96 well v-bottom plate that correspond to the wells on the plate with cells to be stimulated.
Adding the stimulant: The cell plate(s) are taken out of the incubator and placed in a 37° C. water bath next to the pipette apparatus. The cell plate is taken from the water bath and gently swirled to resuspend any settled cells. With pipettor, the stimulant is dispensed into the cell plate and vortexed at “7” for 5 seconds. The deep well plate is put back into the water bath.
The plate is covered with foil sealer and incubated in a 37° C. water bath for 10 minutes. The plate is spun for 6 minutes at 2000 rpm at room temperature. The cells are aspirated using a 96 well plate aspirator (VP Scientific). The plate is vortexed to resuspend cell pellets in the residual volume. The pellet is ensured to be dispersed before the Methanol step (see cell permeabilization) or clumping will occur.
Cell Permeabilization: Permeability agent, for example methanol, is added slowly and while the plate is vortexing. To do this, the cell plate is placed on titer plate shaker and made sure it is secure. The plate is set to shake using the highest setting. A pipetter is used to add 0.6 mls of 100% methanol to the plate wells. The plate(s) are put on ice until this step has been completed for all plates. Plates are covered with a foil seal using the plate roller to achieve a tight fit. At this stage the plates can be stored at −80° C.
Cells are thawed if frozen. Cells are pelleted at 2000 rpm 5 minutes. Supernatant is aspirated with vacuum aspirator. Plate is vortexed on a “plate vortex” for 5-10 seconds. Cells are washed with 1 mL FACS buffer. Repeat the spin, aspirate and vortex steps as above. 50 μL of FACS/stain buffer with the desired, previously optimized, antibody cocktail is added to two rows of cells at a time and agitate the plate. The plate is covered and incubated in a shaker for 30 minutes at room temperature (RT). During this incubation, the compensation plate is prepared.

[2] = test system: AML blasts; experiment: SCNP signaling and apoptosis nodes in AML BMMC (Example 4, Study No. 2); type: cell-based, human
[3] = Total Phospho metric, Study No. 1, CRp patient included in NR group
[4] = read-out p-CREB, metric TotalPhospho
[5] = read-out p-Stat3, metric TotalPhospho
[6] = Fold metric, all patients, Study No. 2
[7] = Study No.2, patients less than 60 years old
[8] = Study No.2, patients with De Novo AML
[9] = TotalPhospho metric, all patients, Study No. 2
[10] = Study No.2, patients age 60 and older

IL-6: cytokine modulator
Mean Value of CRs, p-CREB [1, 3]: 1.58
Mean Value of CRs, p-Stat3 [1, 3]: 1.08
Mean Value of NRs, p-CREB [1, 3]: 2.44
Mean Value of NRs, p-Stat3 [1, 3]: 1.81
Mean Value of CRs [1, 4]: 1.70
Mean Value of NRs [1, 4]: 2.43
Mean Value of CRs [1, 5]: 1.08
Mean Value of NRs [1, 5]: 1.84
Mean Value of CRs, p-Stat1 [2, 6]: −0.01
Mean Value of CRs, p-Stat3 [2, 6]: 0.12
Mean Value of CRs, p-Stat5 [2, 6]: 0.13
Mean Value of NRs, p-Stat1 [2, 6]: 0.26
Mean Value of NRs, p-Stat3 [2, 6]: 1.09
Mean Value of NRs, p-Stat5 [2, 6]: 0.55
Mean Value of CRs, p-Stat1 Fold [2, 7]: −0.02
Mean Value of CRs, p-Stat3 Fold [2, 7]: 0.13
Mean Value of CRs, p-Stat3 TotalPhospho [2, 7]: 1.77
Mean Value of CRs, p-Stat5 Fold [2, 7]: 0.11
Mean Value of NRs, p-Stat1 Fold [2, 7]: 0.3
Mean Value of NRs, p-Stat3 Fold [2, 7]: 1.67
Mean Value of NRs, p-Stat3 TotalPhospho [2, 7]: 4.10
Mean Value of NRs, p-Stat5 Fold [2, 7]: 0.58
Mean Value of CRs, p-Stat1 Fold [2, 8]: 0.00
Mean Value of CRs, p-Stat1 TotalPhospho [2, 8]: 1.06
Mean Value of CRs, p-Stat3 TotalPhospho [2, 8]: 1.7
Mean Value of CRs, p-Stat5 Fold [2, 8]: 0.12
Mean Value of NRs, p-Stat1 Fold [2, 8]: 0.19
Mean Value of NRs, p-Stat1 TotalPhospho [2, 8]: 1.67
Mean Value of NRs, p-Stat3 TotalPhospho [2, 8]: 3.22
Mean Value of NRs, p-Stat5 Fold [2, 8]: 0.47
Mean Value of CRs, p-Stat3 [2, 9]: 1.76
Mean Value of NRs, p-Stat3 [2, 9]: 2.98

GM-CSF
Mean Value of CRs, p-Stat3 [1, 3]: 0.83
Mean Value of NRs, p-Stat3 [1, 3]: 1.23
Mean Value of CRs [1, 5]: 0.84
Mean Value of NRs [1, 5]: 1.24
Mean Value of CRs, p-Stat3 TotalPhospho [2, 7]: 1.51
Mean Value of NRs, p-Stat3 TotalPhospho [2, 7]: 2.35
Mean Value of CRs, p-Stat3 TotalPhospho [2, 8]: 1.51
Mean Value of NRs, p-Stat3 TotalPhospho [2, 8]: 2.22

OO [H2O2, reference compound]
Mean Value of CRs ([1]; read-out p-Lck, metric Fold): 0.42
Mean Value of NRs ([1]; read-out p-Lck, metric Fold): 0.12
Mean Value of CRs ([1]; read-out p-SLP 76, metric Fold): 1.35
Mean Value of NRs ([1]; read-out p-SLP 76, metric Fold): 0.08
Mean Value of CRs, p-Akt [2, 6]: 0.68
Mean Value of NRs, p-Akt [2, 6]: 0.91
Mean Value of CRs, p-Akt Fold [2, 10]: 0.45
Mean Value of CRs, p-Akt TotalPhospho [2, 10]: 0.84
Mean Value of CRs, p-Plcγ2 TotalPhospho [2, 10]: 1.19
Mean Value of NRs, p-Akt Fold [2, 10]: 0.88
Mean Value of NRs, p-Akt TotalPhospho [2, 10]: 1.33
Mean Value of NRs, p-Plcγ2 TotalPhospho [2, 10]: 1.86

CCCCCCCCCCCCCC(=O)O[C@@H]1[C@@H](C)[C@@]2(O)[C@@H](C=C(CO)C[C@]3(O)C(=O)C(C)=C[C@@H]23)[C@@H]2C(C)(C)[C@]12OC(C)=O [PMA, reference compound]
Mean Value of NRs, p-Erk ([1]; Fold metric, Study No. 1, CRp patient included in NR group): 2.03
Mean Value of CRs, p-Erk [2, 6]: 2.82
Mean Value of NRs, p-Erk [2, 6]: 1.74
